Assay results taken from patent US20250212873A1, “VOLATILE HDAC INHIBITORS FOR THERAPEUTIC AND PLANT APPLICATIONS” (The Regents of the University of California, priority 2022, published 2025).

Tests used:
mouse brain = experiment: Brain RNA-seq of mice exposed to diacetyl vapors; type: in vivo; settings: 5 days
Text: HDAC inhibitors are an important class of drugs being tested for a number of different conditions including neurodegenerative diseases and brain cancers. A major design challenge for such drugs is the ability to cross the blood-brain barrier. An interesting possibility that arises due to the volatility and small size of odorants is that they could diffuse through the intranasal route to the brain directly. To test whether cells in the brain respond to diacetyl vapors by altering gene expression RNA-seq experiments were carried out on mice exposed only to aroma of diacetyl for 5 days. Littermate controls were exposed in a similar manner to the solvent (PO) headspace.
The DEGs from the diacetyl-exposed mouse brain transcriptome for several of these key genes were evaluated.

[1] = system: A. thaliana plants (Col-0); experiment: Flowering assay; type: in vivo, Arabidopsis thaliana; settings: vapors from 0.1% solution
Text: Dramatic effects of VOCs have been seen in the seedling stage. The effects on with flowering timing were observed, since the process involves numerous changes in gene expression and therefore potentially susceptible to HDAC inhibitory volatiles. Mutants in HDACs like HDA5 show delayed flowering due to upregulation of flowering repressor genes like FLC and MAF1 (M. Luo et al., Plant J 82, 925-936 (2015)). Conversely, mutants in HDA9lead to early flowering due to increased expression of FLOWERING LOCUS T (FT) and AGAMOUS-LIKE 19 (AGL19) (M. J. Kang, et al., New Phytol 206, 281-294 (2015)). We placed 3 weeks old A. thaliana plants in the glass chambers and exposed them to the vapors of two of the VOCs, diacetyl and α-angelica lactone volatilizing from 0.1% solutions in the glass chamber.
Twenty-seven day old A. thaliana plants (Col-0), that had been transplanted at day 7 to soil, were placed in 10-gallon glass aquarium as chamber along with a petridish containing 2 ml of chemical dissolved in PO or PO alone were placed at the other side of the container. Plants were exposed to odors until all plants began to flower, with odor cartridges being replaced daily. Signs of flower buds opening were counted as plant flowering. One-way analysis of Variance (ANOVA) between groups was performed for plant exposure quantitative data using Graph Pad Prism 9.

[2] = system: A. thaliana plants (Col-0); experiment: Cold tolerance assay; type: in vivo, Arabidopsis thaliana; settings: cold treatment to -10° C., scored after 5 days; controls ~30%
Method: HDACs have also been implicated in responses to a number of abiotic stresses, such as temperature, drought, salt, etc in a variety of ways (M. Luo, et al., Frontiers in Plant Science 8, (2017)). One of the phenotypes that can be rapidly tested in a laboratory is tolerance to cold temperatures in Arabidopsis. […] The yellowing of leaves was determined after 5 days and the controls ˜30% of the leaves turned yellow-brown in the classic cold response previously documented.
Twenty six day old A. thaliana plants (Col-0), that had been transplanted at day 7 to soil, were cold-acclimatized the plants for 7 days at 4° C., and then transferred to respective odor exposure chambers with a petridish containing 2 ml of chemical dissolved in PO or PO alone in a freezing chamber in which temperatures went down every 2° C. for 0.5 h and maintained for 1 hour, and it dropped up to −10° C. […] The survival rate was determined after 5 days. […] One-way analysis of Variance (ANOVA) between groups was performed for plant exposure quantitative data using Graph Pad Prism 9.

[3] = 0.1% headspace, |log2 fold-change|>1, FDR<0.05
[4] = 1% headspace, |log2 fold-change|>1, FDR<0.01

CC(=O)C(C)=O [2,3-butanedione]
down regulated genes in mouse brain (mouse brain; [3]): 32 genes | up-regulated genes in mouse brain (mouse brain; [3]): 49 genes | down regulated genes in mouse brain (mouse brain; [4]): 1031 genes | up-regulated genes in mouse brain (mouse brain; [4]): 748 genes | Alk expression in mouse brain (mouse brain; exposed mice of FIG. 22B (1%)): significantly downregulated | ERCC6L2 expression in mouse brain (mouse brain; exposed mice of FIG. 22B (1%)): significantly downregulated | MycN expression in mouse brain (mouse brain; exposed mice of FIG. 22B (1%)): significantly downregulated | NCAN expression in mouse brain (mouse brain; exposed mice of FIG. 22B (1%)): significantly downregulated | STK33 expression in mouse brain (mouse brain; exposed mice of FIG. 22B (1%)): significantly downregulated | gene expression in the mouse brain (RNA-seq), in words (mouse brain; inhaled vapors, 0.1% or 1% solution headspace): changes in expression of a number of genes, in a dose dependent manner | delay in flowering [1]: 11 days | yellow leaves after freezing [2]: ~20%
